Results on six compounds are retold here after US20240209028A1, “CNP COMPOUNDS” (priority 2022, published 2024).

What all share (assay type): physicochemical
Data set [1] in a line: High-Molecular-Weight-Protein (HMWP) formation by SEC-UPLC. The following applies: increase over two weeks at 37° C. As for the experimental part: In order to assess the propensity of CNP compounds to form covalent dimers or oligomers when formulated the High-Molecular-Weight-Protein content of CNP compound formulations at pH 4.0 and 6.5 were determined.
Procedure: The relative amount of covalent HMWP was assessed using SEC-UPLC. SEC-UPLC was conducted using a Waters UPLC Protein BEH SEC column, 125A, 4.6×150 mm, 1.7 μm, with isocratic elution (0.3 M NaCl, 10 mM NaH2PO4 and 5 mM H3PO4, 50% (v/v) isopropanol, pH 2.4) with a flow rate of 0.3 mL/min, a column temperature at 50° C. with UV-detection at 215 nm. The total area of peaks eluting prior to the monomeric main peak was termed HMWP and given on a percentage scale relative to the total peptide peak area.
Results: HMWP Formation Following 2-Weeks Quiescent Incubation at 37° C.: Samples at pH 4.0 were prepared as described in Example 5 and the amount of HMWP was determined as described above. Samples were incubated for two weeks at 37° C. and the amount of HMWP was determined again. The increase in HMWP over two weeks incubation at 37° C. are reported in Table 10 (in case the incubation period deviated from two weeks the increase in HMWP was normalized to two weeks assuming a constant formation rate).
Samples at pH 6.5 were prepared as described in Example 5 and the amount of HMWP was determined as described above. Samples were incubated for two weeks at 37° C. and the amount of HMWP was determined again. The increase in HMWP over two weeks incubation at 37° C. are reported in Table 11 (in case the incubation period deviated from two weeks the increase in HMWP was normalized to two weeks assuming a constant formation rate).
For orientation: SEC sorts molecules by how far they enter the pores of the column.

Data set [2] is described as follows: Solubility of CNP compounds at pH 4.0 and pH 6.5. Put shortly:
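Supernatant peptide concentration was quantified by CAD after overnight room-temperature equilibration of incompletely dissolved samples. Nominal loading was ≥4000-5000 nmol/mL. Media were pH 4.0 sodium acetate 5 mM/glycerol 250 mM, or pH 6.5 sodium phosphate 8 mM/glycerol 23 mg/mL reached by stepwise NaOH addition.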

Data set [3] is described as follows: Thioflavin T (ThT) assay: lagtime and peptide recovery. The conditions noted are these: assay terminated after 45 hours; for LagTime (h) at pH 6.5: ThT assay, pH 6.5, 37° C. The gist of the method:
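ThT (final about 1 μM) was added to peptide supernatants at pH 4.0 and 6.5 and incubated at 37 °C with orbital shaking for 45 h. Fluorescence (ex 444/em 485 nm) was read every 20 min, and lag-time was taken as the time to onset of signal rise. Recovery is the RP-UPLC (215 nm) total peak area after vs. before incubation.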

[4] abbreviates: 8 mM sodium phosphate, 23 mg/mL glycerol, pH 6.5, room temperature, read-out: Solubility at pH 6.5.

In brackets after ≈: the same amount, converted by molar mass. Read-outs that look alike come from different tables or passages of the source. Starred links: 1 amine or outer side, 2 acyl side, 3 side chain; linkers in the order of their positions; H or OH if unused. Positions of bridges follow the written chain, without caps; N, C: chain ends. Residues, ends and D or L forms follow the SMILES beside them. *: point of attachment. C18 diacid = O=C(O)CCCCCCCCCCCCCCCCC(=O)*; γGlu = O=C(O)[C@H](CCC(=O)[*:2])N[*:1]; AEEA = NCCOCCOCC(=O)O

Turning to `CC[C@H](C)[C@@H]1NC(=O)[C@H](CCCNC(=N)N)NC(=O)[C@H](CC(=O)O)NC(=O)[C@H](CC(C)C)NC(=O)[C@@H]2CCCN2C(=O)[C@H](CC(C)C)NC(=O)CNC(=O)[C@H](Cc2ccccc2)NC(=O)[C@@H](NC(=O)CNC(=O)[C@H](CO)NC(=O)[C@H](CO)NC(=O)[C@H](CC(C)C)NC(=O)CNC(=O)[C@H](CCCCN)NC(=O)[C@H](CCCCN)NC(=O)[C@H](CCC(N)=O)NC(=O)[C@H](C)NC(=O)CNC(=O)[C@H](CCCCN)NC(=O)[C@H](Cc2ccc(O)cc2)NC(=O)[C@H](CCCCN)NC(=O)[C@H](CCCNC(=N)N)NC(=O)[C@H](C)NC(=O)[C@H](CCC(N)=O)NC(=O)[C@@H]2CCCN2C(=O)[C@H](Cc2c[nH]cn2)NC(=O)[C@H](CCC(=O)O)NC(=O)[C@H](CCC(N)=O)NC(=O)CC[C@H](NC(=O)CC[C@H](NC(=O)CC[C@H](NC(=O)CC[C@H](NC(=O)CCCCCCCCCCCCCCCCC(=O)O)C(=O)O)C(=O)O)C(=O)O)C(=O)O)CSSC[C@@H](C(=O)O)NC(=O)CNC(=O)[C@H](CC(C)C)NC(=O)CNC(=O)[C@H](CO)NC(=O)[C@H](CC(C)C)NC(=O)[C@H](CO)NC(=O)CNC1=O` [compound 1389] ({C18 diacid-γGlu-γGlu-γGlu-γGlu}-QEHPQARKYKGAQKKGLSSGCFGLPLDRIGSLSGLGC-OH; disulfide 21-37), the “2-Week HMWP formation at pH 4.0 (%), % relative to total peak area” value in data set [1] (pH 4.0) was determined as 1.43%. Also, the solubility – broadly, how much of the substance goes into solution per volume – is 8.9 mM (≈ 41.8 mg/mL) in data set [2] (5 mM sodium acetate, 250 mM glycerol, pH 4.0, room temperature, read-out: Solubility at pH 4.0) and 0.426 mM (≈ 2 mg/mL) in data set [2] (setting [4]). Also, the “LagTime (h) at pH 4.0” value in data set [3] (ThT, 37° C., shaking) is recorded as 45 h.

As for `CC[C@H](C)[C@@H]1NC(=O)[C@H](CCCNC(=N)N)NC(=O)[C@H](CC(=O)O)NC(=O)[C@H](CC(C)C)NC(=O)[C@@H]2CCCN2C(=O)[C@H](CC(C)C)NC(=O)CNC(=O)[C@H](Cc2ccccc2)NC(=O)[C@@H](NC(=O)CNC(=O)[C@H](CCC(N)=O)NC(=O)[C@H](CO)NC(=O)[C@H](CO)NC(=O)CNC(=O)[C@H](CCCCN)NC(=O)[C@H](CCCCN)NC(=O)[C@H](CCC(N)=O)NC(=O)[C@H](C)NC(=O)CNC(=O)[C@@H]2CCCN2C(=O)[C@H](C)NC(=O)[C@H](CCC(N)=O)NC(=O)CNC(=O)[C@@H]2CCCN2C(=O)[C@H](C)NC(=O)[C@H](CCC(N)=O)NC(=O)CNC(=O)[C@@H]2CCCN2C(=O)[C@H](C)NC(=O)[C@H](CCC(N)=O)NC(=O)CNC(=O)COCCOCCNC(=O)COCCOCCNC(=O)CC[C@H](NC(=O)CCCCCCCCCCCCCCCCC(=O)O)C(=O)O)CSSC[C@@H](C(=O)O)NC(=O)CNC(=O)[C@H](CC(C)C)NC(=O)CNC(=O)[C@H](CO)NC(=O)[C@H](CC(C)C)NC(=O)[C@H](CO)NC(=O)CNC1=O` [compound 1457] ({C18 diacid-γGlu-AEEA-AEEA}-GQAPGQAPGQAPGAQKKGSSQGCFGLPLDRIGSLSGLGC-OH; disulfide 23-39), the “2-Week HMWP formation at pH 6.5 (%), % relative to total peak area” value in data set [1] amounted to 3.24%. Moreover, the solubility in data set [2] (setting [4]) is 8.96 mM (≈ 39.5 mg/mL). In data set [3], the “LagTime (h) at pH 6.5” value came to 45 h.

In the case of `CC[C@H](C)[C@@H]1NC(=O)[C@H](CCCNC(=N)N)NC(=O)[C@H](CC(=O)O)NC(=O)[C@H](CC(C)C)NC(=O)[C@@H]2CCCN2C(=O)[C@H](CC(C)C)NC(=O)CNC(=O)[C@H](Cc2ccccc2)NC(=O)[C@@H](NC(=O)CNC(=O)[C@H](CCC(N)=O)NC(=O)[C@H](CO)NC(=O)[C@H](CC(C)C)NC(=O)CNC(=O)[C@H](CCCCN)NC(=O)[C@H](CCCCN)NC(=O)[C@H](CCC(N)=O)NC(=O)[C@H](C)NC(=O)CNC(=O)[C@H](CCCCN)NC(=O)[C@H](Cc2ccc(O)cc2)NC(=O)[C@H](CCCCN)NC(=O)[C@H](CCCNC(=N)N)NC(=O)[C@H](C)NC(=O)[C@H](CCC(N)=O)NC(=O)[C@@H]2CCCN2C(=O)[C@H](Cc2c[nH]cn2)NC(=O)[C@H](CCC(=O)O)NC(=O)[C@H](CCC(N)=O)NC(=O)COCCOCCNC(=O)COCCOCCNC(=O)COCCOCCNC(=O)COCCOCCNC(=O)CC[C@H](NC(=O)CC[C@H](NC(=O)CC[C@H](NC(=O)CC[C@H](NC(=O)CC[C@H](NC(=O)CCCCCCCCCCCCCCCCC(=O)O)C(=O)O)C(=O)O)C(=O)O)C(=O)O)C(=O)O)CSSC[C@@H](C(=O)O)NC(=O)CNC(=O)[C@H](CC(C)C)NC(=O)CNC(=O)[C@H](CO)NC(=O)[C@H](CC(C)C)NC(=O)[C@H](CO)NC(=O)CNC1=O` [compound 1406] ({C18 diacid-γGlu-γGlu-γGlu-γGlu-γGlu-AEEA-AEEA-AEEA-AEEA}-QEHPQARKYKGAQKKGLSQGCFGLPLDRIGSLSGLGC-OH; disulfide 21-37), in data set [1], the “2-Week HMWP formation at pH 6.5 (%), % relative to total peak area” value turned out to be 2.77%. Also, the solubility in data set [2] (setting [4]) turned out to be 5.67 mM (≈ 30.9 mg/mL). Moreover, the “LagTime (h) at pH 6.5” value in data set [3] was 45 h.

On to `CC[C@H](C)[C@@H]1NC(=O)[C@H](CCCNC(=N)N)NC(=O)[C@H](CC(=O)O)NC(=O)[C@H](CC(C)C)NC(=O)[C@@H]2CCCN2C(=O)[C@H](CC(C)C)NC(=O)CNC(=O)[C@H](Cc2ccccc2)NC(=O)[C@@H](NC(=O)CNC(=O)[C@H](CO)NC(=O)[C@H](CO)NC(=O)[C@H](CC(C)C)NC(=O)CNC(=O)[C@@H](NC(=O)[C@H](Cc2c[nH]cn2)NC(=O)[C@H](CCC(N)=O)NC(=O)[C@H](C)NC(=O)CNC(=O)[C@H](Cc2c[nH]cn2)NC(=O)[C@H](Cc2ccc(O)cc2)NC(=O)COCCOCCNC(=O)COCCOCCNC(=O)CC[C@H](NC(=O)CCCCCCCCCCCCCCCCC(=O)O)C(=O)O)[C@@H](C)O)CSSC[C@@H](C(=O)O)NC(=O)CNC(=O)[C@H](CC(C)C)NC(=O)CNC(=O)[C@H](CO)NC(=O)[C@H](CC(C)C)NC(=O)[C@H](CO)NC(=O)CNC1=O` [compound 1304] ({C18 diacid-γGlu-AEEA-AEEA}-YHGAQHTGLSSGCFGLPLDRIGSLSGLGC-OH; disulfide 13-29), for which the “2-Week HMWP formation at pH 6.5 (%), % relative to total peak area” value in data set [1] is 1.55%. Besides, the solubility in data set [2] (setting [4]) is 6.66 mM (≈ 24.1 mg/mL). In addition, the “LagTime (h) at pH 6.5” value in data set [3] was determined as 45 h.

For the compound `CC[C@H](C)[C@@H]1NC(=O)[C@H](CCCNC(=N)N)NC(=O)[C@H](CCC(=O)O)NC(=O)[C@H](CC(C)C)NC(=O)[C@@H]2CCCN2C(=O)[C@H](CC(C)C)NC(=O)CNC(=O)[C@H](Cc2ccccc2)NC(=O)[C@@H](NC(=O)CNC(=O)[C@H](CCC(N)=O)NC(=O)[C@H](CO)NC(=O)[C@H](CC(C)C)NC(=O)CNC(=O)[C@H](CCCCN)NC(=O)[C@H](CCCCN)NC(=O)[C@H](CCC(N)=O)NC(=O)[C@H](C)NC(=O)CNC(=O)[C@H](CCCCN)NC(=O)[C@H](Cc2ccc(O)cc2)NC(=O)[C@H](CCCCN)NC(=O)[C@H](CCCNC(=N)N)NC(=O)[C@H](C)NC(=O)COCCOCCNC(=O)COCCOCCNC(=O)COCCOCCNC(=O)COCCOCCNC(=O)CC[C@H](NC(=O)CC[C@H](NC(=O)CC[C@H](NC(=O)CC[C@H](NC(=O)CC[C@H](NC(=O)CCCCCCCCCCCCCCCCC(=O)O)C(=O)O)C(=O)O)C(=O)O)C(=O)O)C(=O)O)CSSC[C@@H](C(=O)O)NC(=O)CNC(=O)[C@H](CC(C)C)NC(=O)CNC(=O)[C@H](CO)NC(=O)[C@H](CC(C)C)NC(=O)[C@H](CO)NC(=O)CNC1=O` [compound 1477] ({C18 diacid-γGlu-γGlu-γGlu-γGlu-γGlu-AEEA-AEEA-AEEA-AEEA}-ARKYKGAQKKGLSQGCFGLPLERIGSLSGLGC-OH; disulfide 16-32), in data set [1], the “2-Week HMWP formation at pH 6.5 (%), % relative to total peak area” value was 1.83%. Further, the concentration in solution in data set [2] (pH 6.5) (solubility) was 5.35 mM (≈ 25.9 mg/mL). The “LagTime (h) at pH 6.5” value in data set [3] is given as 23 h.

Regarding `CC[C@H](C)[C@@H]1NC(=O)[C@H](CCCNC(=N)N)NC(=O)[C@H](CC(=O)O)NC(=O)[C@H](CC(C)C)NC(=O)[C@@H]2CCCN2C(=O)[C@H](CC(C)C)NC(=O)CNC(=O)[C@H](Cc2ccccc2)NC(=O)[C@@H](NC(=O)CNC(=O)[C@H](CCC(N)=O)NC(=O)[C@H](CO)NC(=O)[C@H](CO)NC(=O)CNC(=O)[C@H](CCCCN)NC(=O)[C@H](CCCCN)NC(=O)[C@H](CCC(N)=O)NC(=O)[C@H](C)NC(=O)CNC(=O)[C@@H]2CCCN2C(=O)[C@H](C)NC(=O)[C@H](CCC(N)=O)NC(=O)CNC(=O)COCCOCCNC(=O)COCCOCCNC(=O)CC[C@H](NC(=O)CCCCCCCCCCCCCCCCC(=O)O)C(=O)O)CSSC[C@@H](C(=O)O)NC(=O)CNC(=O)[C@H](CC(C)C)NC(=O)CNC(=O)[C@H](CO)NC(=O)[C@H](CC(C)C)NC(=O)[C@H](CO)NC(=O)CNC1=O` [compound 9384] ({C18 diacid-γGlu-AEEA-AEEA}-GQAPGAQKKGSSQGCFGLPLDRIGSLSGLGC-OH; disulfide 15-31; C-terminus assumed), in data set [1], the “2-Week HMWP formation at pH 6.5 (%), % relative to total peak area” value is given as 1.5%. For the same compound, in data set [2] (setting [4]), the solubility came to 7.56 mM (≈ 28 mg/mL). Also, the “LagTime (h) at pH 6.5” value in data set [3] was 45 h.
